The results in this text go back to patent US9144239B2, “Macrocyclic picolinamides as fungicides” (DOW AGROSCIENCES LLC, priority 2012, dated 2015).

Like-named read-outs stand apart in the source and are kept apart here.

What all share (assay type): in vivo
Experiment [1] deals with Puccinia triticina; synonym: Puccinia recondita f. sp. tritici. In words: Fungicide mobility (dropline mobility test): wheat brown rust (PUCCRT). Conditions: 1 ug/leaf. A digest of the protocol: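 A 2 μl drop of formulated compound (EC blank, 110 ppm Triton X-100 water) was applied to a line 5 cm from the tip of primary leaves of "Yuma" wheat seedlings, 6 replicates. Inoculation with PUCCRT was done 1 day after or 3 days before application. Once disease was fully expressed on controls, the acropetal disease-free zone was measured as percent of line-to-tip distance.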

The subject of a further experiment is Venturia inaequalis. In words: Fungicidal activity: apple scab (VENTIN). As to conditions: 24 h, 1 Day Protectant, read-out: Disease Control VENTIN 1 DP. As to the method: Technical grades of materials were dissolved in acetone, which were then mixed with nine volumes of water containing 110 ppm Triton X-100. The fungicide solutions were applied onto wheat seedlings using an automated booth sprayer to run-off. All sprayed plants were allowed to air dry prior to further handling. Wheat plants (variety Yuma) were grown from seed in a greenhouse in 50% mineral soil/50% soil-less Metro mix until the first leaf was fully emerged, with 7-10 seedlings per pot. These plants were inoculated with an aqueous spore suspension of Septoria tritici either prior to or after fungicide treatments. After inoculation the plants were kept in 100% relative humidity (one day in a dark dew chamber followed by two to three days in a lighted dew chamber at 20° C.) to permit spores to germinate and infect the leaf. The plants were then transferred to a greenhouse set at 20° C. for disease to develop. When disease symptoms were fully expressed on the 1st leaves of untreated plants, infection levels were assessed on a scale of 0 to 100 percent disease severity. Percent disease control was calculated using the ratio of disease severity on treated plants relative to untreated plants. Evaluation of Fungicidal Activity: Apple Scab (Venturia inaequalis; Bayer Code […]) Apple seedlings (variety McIntosh) were grown in soil-less Metro mix, with one plant per pot. Seedlings with two expanding young leaves at the top (older leaves at bottom of the plants were trimmed) were used in the test. Plants were inoculated with a spore suspension of Venturia inaequalis 24 hr after fungicide treatment and kept in a 22° C. dew chamber with 100% RH for 48 hr, and then moved to a greenhouse set at 20° C. for disease to develop. Fungicide formulation, application and disease assessment on the sprayed leaves followed the procedures as described in the Example A.

The test system of the next experiment is Phakopsora pachyrhizi. In words: Fungicidal activity: Asian soybean rust (PHAKPA). Conditions: 25 ppm; for Disease Control PHAKPA 1DP: 1 Day Protectant; for Disease Control PHAKPA 3DC: 3 Day Curative. As to the method:
Evaluation of Fungicidal Activity: Asian Soybean Rust (Phakopsora pachyrhizi; Bayer Code […]) Technical grades of materials were dissolved in acetone, which were then mixed with nine volumes of water containing 0.011% Tween 20. The fungicide solutions were applied onto soybean seedlings using an automated booth sprayer to run-off. All sprayed plants were allowed to air dry prior to further handling. Soybean plants (variety Williams 82) were grown in soil-less Metro mix, with one plant per pot. Two weeks old seedlings were used for testing. […] Plants were incubated for 24 h in a dark dew room at 22° C. and 100% RH then transferred to a growth room at 23° C. for disease to develop. Disease severity was assessed on the sprayed leaves.

The test system of experiment [2] is Magnaporthe grisea; anamorph: Pyricularia oryzae. Briefly: whole plant or invertebrate. Conditions: 24 h, read-out: Disease Control PYRIOR 1 DP.
Experiment [3] relates to Mycosphaerella graminicola; anamorph: Septoria tritici. In words: Fungicidal activity: leaf blotch of wheat (SEPTTR), wheat seedlings. As to conditions: Zymoseptoria tritici, 100 ppm, wheat. A digest of the protocol:
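Compounds in acetone were diluted with nine volumes of water containing 110 ppm Triton X-100 and sprayed to run-off on Yuma wheat seedlings at first-leaf stage. Septoria tritici spores were inoculated before or after treatment, followed by dew chambers at 100% RH and 20 °C, then greenhouse at 20 °C. Severity (0–100%) was scored once untreated plants were fully diseased; control was calculated relative to untreated plants.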

Experiment [4] concerns Blumeria graminis f.sp. tritici; synonym: Erysiphe graminis f.sp. tritici. In words: Fungicidal activity: wheat powdery mildew (ERYSGT). As to conditions: 24 h, 1 Day Protectant, read-out: Disease Control ERYSGT 1 DP. As to the method: Technical grades of materials were dissolved in acetone, which were then mixed with nine volumes of water containing 110 ppm Triton X-100. The fungicide solutions were applied onto wheat seedlings using an automated booth sprayer to run-off. All sprayed plants were allowed to air dry prior to further handling. Wheat plants (variety Yuma) were grown from seed in a greenhouse in 50% mineral soil/50% soil-less Metro mix until the first leaf was fully emerged, with 7-10 seedlings per pot. These plants were inoculated with an aqueous spore suspension of Septoria tritici either prior to or after fungicide treatments. After inoculation the plants were kept in 100% relative humidity (one day in a dark dew chamber followed by two to three days in a lighted dew chamber at 20° C.) to permit spores to germinate and infect the leaf. The plants were then transferred to a greenhouse set at 20° C. for disease to develop. When disease symptoms were fully expressed on the 1st leaves of untreated plants, infection levels were assessed on a scale of 0 to 100 percent disease severity. Percent disease control was calculated using the ratio of disease severity on treated plants relative to untreated plants. Evaluation of Fungicidal Activity: Wheat Powdery Mildew (Blumeria graminis f.sp. tritici; Synonym: Erysiphe graminis f.sp. tritici; Bayer Code […]) Wheat plants (variety Yuma) were grown from seed in a greenhouse in 50% mineral soil/50% soil-less Metro mix until the first leaf was fully emerged, with 7-10 seedlings per pot. These plants were inoculated by dusting with infected stock plants 24 hr after fungicide treatments. After inoculation the plants were kept in a greenhouse set at 20° C. for disease to develop. Fungicide formulation, application and disease assessment on the sprayed leaves followed the procedures as described in the Example A.

Where [5] appears, read: 24 h, 1 Day Protectant Mobility, read-out: Dropline Mobility Test PUCCRT 1DPM.
[6] abbreviates: 72 h, 3 Day Curative Mobility, read-out: Dropline Mobility Test PUCCRT 3DCM.
Where [7] appears, read: 24 h, 1 Day Protectant, read-out: Disease Control SEPTTR 1DP.
Setting [8] is: 72 h, 3 Day Curative, read-out: Disease Control SEPTTR 3DC.

`CCC(C)(C)O[C@H]1COC[C@H](NC(=O)c2nccc(OC)c2OCOC(C)=O)C(=O)O[C@@H](C)[C@@H]1OCC(C)C` [Compound 78]: the pest or weed control at 1 µg/leaf in experiment [1] (setting [5]) and in experiment [1] (setting [6]) was 0 to 80% each time. Besides, the pest or weed control at 100 ppm (in the experiment with Venturia inaequalis; in experiment [2]; in experiment [3] (setting [7]); in experiment [3] (setting [8]); in experiment [4]) was 80 to 100% throughout. In addition, in the experiment with Phakopsora pachyrhizi, the “Disease Control PHAKPA 1DP” value is listed as “A (80-100)”.

On to `COc1ccnc(C(=O)N[C@H]2COC[C@H](Oc3ccccc3)[C@@H](Oc3ccccc3)[C@H](C)OC2=O)c1OCOC(C)=O` [Compound 84], for which, in experiment [1] (setting [5]), the pest or weed control at 1 µg/leaf lay within 80 to 100%. Moreover, the pest or weed control at 100 ppm with Venturia inaequalis lay within 0 to 80%; in experiment [2], 80 to 100%; in experiment [3] (setting [7]), 80 to 100%; in experiment [3] (setting [8]), 80 to 100%; in experiment [4] it was 0 to 80%. The “Disease Control PHAKPA 1DP” value in the experiment with Phakopsora pachyrhizi is “A (80-100)”. Moreover, the “Disease Control PHAKPA 3DC” value in the experiment on Phakopsora pachyrhizi was “A (80-100)”.

Take `COc1ccnc(C(=O)N[C@H]2COC[C@H](Oc3ccccc3)[C@@H](OCC(C)C)[C@H](C)OC2=O)c1OCOC(C)=O` [Compound 86]: the results for the pest or weed control at 1 µg/leaf in experiment [1] (setting [5]) and in experiment [1] (setting [6]) were 80 to 100% and 0 to 80%, respectively. In addition, the pest or weed control at 100 ppm lay in the range of 0 to 80% in the experiment with Venturia inaequalis; 80 to 100% in experiment [2]; 80 to 100% in experiment [3] (setting [7]); 80 to 100% in experiment [3] (setting [8]); 80 to 100% in experiment [4]. Besides, the “Disease Control PHAKPA 1DP” value in the experiment on Phakopsora pachyrhizi is recorded as “A (80-100)”. Besides, in the experiment on Phakopsora pachyrhizi, the “Disease Control PHAKPA 3DC” value is listed as “A (80-100)”.
